Patent US4362743A, “Antibacterial monic acid esters” (Beecham Group Limited, priority 1980, dated 1982)
In brackets after ≈: the same amount, converted by molar mass. Like-named read-outs stand apart in the source and are kept apart here.

Legend:
Staph. aureus W2827 = experiment: Human bacteria MIC; format: cell-based; details: Staphylococcus aureus
Experimental: (§1) The values were determined by serial dilutions in nutrient agar with 5% chocolated horse blood after incubations for 18 hours at 37° C.

E. Coli NCT 10418 = experiment: Human bacteria MIC; format: cell-based; details: Escherichia coli
Experimental: as §1

Strep. pneumoniae CN33 = experiment: Human bacteria MIC; format: cell-based; details: Streptococcus pneumoniae; Strep. pneumoniae CN33; nutrient agar, 5% chocolated horse blood, 18 hours 37° C.; read-out: M.I.C.
Experimental: as §1

E. coli ESS = experiment: Human bacteria MIC; format: cell-based; details: Escherichia coli
Experimental: as §1

Ps. aeruginosa 10662 = experiment: Human bacteria MIC; format: cell-based
Experimental: as §1

[1] = test system: Neisseria catarralis 1502; experiment: Human bacteria MIC; format: cell-based; details: Neisseria catarralis 1502; nutrient agar, 5% chocolated horse blood, 18 hours 37° C.; read-out: M.I.C.
Experimental: as §1

[2] = test system: Haemophilus influenzae Q1; experiment: Human bacteria MIC; format: cell-based
Experimental: as §1

P. mirabilis 889 = experiment: Human bacteria MIC; format: cell-based
Experimental: as §1

Bacillus subtilis 6633 = experiment: Human bacteria MIC; format: cell-based
Experimental: as §1

K. aerogenes A = experiment: Human bacteria MIC; format: cell-based; details: Klebsiella aerogenes
Experimental: as §1

[3] = test system: Corneybacterium xerosis 9755; experiment: Human bacteria MIC; format: cell-based
Experimental: as §1

Strep. Group C 64/848 = experiment: Human bacteria MIC; format: cell-based; details: Strep. Group C 64/848; nutrient agar, 5% chocolated horse blood, 18 hours 37° C.; read-out: M.I.C.
Experimental: as §1

Staph. aureus Oxford = experiment: Human bacteria MIC; format: cell-based; details: Staphylococcus aureus; Staph. aureus Oxford; nutrient agar, 5% chocolated horse blood, 18 hours 37° C.; read-out: M.I.C.
Experimental: as §1

Strep Group B 2788 = experiment: Human bacteria MIC; format: cell-based; details: Strep Group B 2788; nutrient agar, 5% chocolated horse blood, 18 hours 37° C.; read-out: M.I.C.
Experimental: as §1

Strep. pyogenes R80/421 = experiment: Human bacteria MIC; format: cell-based; details: Streptococcus pyogenes
Experimental: as §1

[4] = test system: Pasteurella multocida 1633; experiment: Human bacteria MIC; format: cell-based
Experimental: as §1

Staph. aureus Russell = experiment: Human bacteria MIC; format: cell-based; details: Staphylococcus aureus; Staph. aureus Russell; nutrient agar, 5% chocolated horse blood, 18 hours 37° C.; read-out: M.I.C.
Experimental: as §1

Strep. faecalis I = experiment: Human bacteria MIC; format: cell-based; details: Enterococcus faecalis, nutrient agar, 5% chocolated horse blood, 18 hours 37° C.
Experimental: as §1

[5] = test system: M. bovigenitalium ATCC 14173; experiment: Anti-mycoplasmal activity in vitro MIC; format: cell-based; details: 144 h
M. hyorhinis ATCC 25021 = experiment: Anti-mycoplasmal activity in vitro MIC; format: cell-based; details: Mesomycoplasma hyorhinis, ATCC25021, 144 h
[6] = test system: M. hyosynoviae ATCC 25591; experiment: Anti-mycoplasmal activity in vitro MIC; format: cell-based; details: 144 h
M. suipneumoniae NB12 = experiment: Anti-mycoplasmal activity in vitro MIC; format: cell-based; details: Mesomycoplasma hyopneumoniae
M. suipneumoniae LABER = experiment: Anti-mycoplasmal activity in vitro MIC; format: cell-based; details: Mesomycoplasma hyopneumoniae, 144 h
[7] = Serum binding by ultrafiltration; format: in vitro ADME; details: pig, porcine serum, 8 mcg/ml, read-out: % bound to pig serum (converted)
Experimental: Serum binding was assessed by ultrafiltration of porcine serum containing compounds at 8 mcg/ml, and through an Amicon CF50A ultrafiltration cone. Separation of ultrafiltrate was achieved by centrifugation. Unbound concentrations of compound were measured in the ultrafiltrate by microbiological assay (B. subtilis ATCC 6633) against standards prepared in saline.

M. suipneumoniae UCD 1 = experiment: Anti-mycoplasmal activity in vitro MIC; format: cell-based; details: Mesomycoplasma hyopneumoniae, UCD1, 144 h
M. suipneumoniae HK (2) = experiment: Anti-mycoplasmal activity in vitro MIC; format: cell-based; details: Mesomycoplasma hyopneumoniae, 144 h
[8] = test system: M. suipneumoniae PW/C/210; experiment: Anti-mycoplasmal activity in vitro MIC; format: cell-based; details: Mesomycoplasma hyopneumoniae, 144 h
M. bovis NCTC 10131 = experiment: microbe, parasite or virus in culture; format: cell-based; details: NCTC10131, 144 h
[9] = Staph. aureus W2827, nutrient agar, 5% chocolated horse blood, 18 hours 37° C., read-out: M.I.C.
[10] = E. Coli NCT 10418, nutrient agar, 5% chocolated horse blood, 18 hours 37° C., read-out: M.I.C.
[11] = Pseudomonas aeruginosa, Ps. aeruginosa 10662, nutrient agar, 5% chocolated horse blood, 18 hours 37° C., read-out: M.I.C.
[12] = Haemophilus influenzae Q1, nutrient agar, 5% chocolated horse blood, 18 hours 37° C., read-out: M.I.C.
[13] = Proteus mirabilis, P. mirabilis 889, nutrient agar, 5% chocolated horse blood, 18 hours 37° C., read-out: M.I.C.
[14] = Bacillus subtilis 6633, nutrient agar, 5% chocolated horse blood, 18 hours 37° C., read-out: M.I.C.
[15] = K. aerogenes A, nutrient agar, 5% chocolated horse blood, 18 hours 37° C., read-out: M.I.C.
[16] = Corneybacterium xerosis 9755, nutrient agar, 5% chocolated horse blood, 18 hours 37° C., read-out: M.I.C.
[17] = Strep. pyogenes R80/421, nutrient agar, 5% chocolated horse blood, 18 hours 37° C., read-out: M.I.C.
[18] = Pasteurella multocida 1633, nutrient agar, 5% chocolated horse blood, 18 hours 37° C., read-out: M.I.C.
[19] = M. suipneumoniae LABER, Friis broth, 0.9% agarose, 6 days 37° C., read-out: M.I.C.
[20] = M. suipneumoniae PW/C/210, Friis broth, 0.9% agarose, 6 days 37° C., read-out: M.I.C.

## C/C(=C\C(=O)OCCCC(=NO)c1cccs1)C[C@@H]1OC[C@H](C[C@@H]2O[C@H]2[C@@H](C)[C@H](C)O)[C@@H](O)[C@H]1O [Example 4, 4-Hydroxyimino-4-(2-thienyl)butyl monate A]
Staph. aureus W2827; [9]
  MIC: 2.5 µg/mL (≈ 4.89 µM)
E. Coli NCT 10418; [10]
  MIC: > 100 µg/mL
Strep. pneumoniae CN33
  MIC: 1 µg/mL (≈ 1.95 µM)
E. coli ESS; E. coli ESS, nutrient agar, 5% chocolated horse blood, 18 hours 37° C., read-out: M.I.C.
  MIC: 2.5 µg/mL (≈ 4.89 µM)
Ps. aeruginosa 10662; [11]
  MIC: > 100 µg/mL
[1]
  MIC: 0.5 µg/mL (≈ 0.977 µM)
[2]; [12]
  MIC: 0.5 µg/mL (≈ 0.977 µM)
P. mirabilis 889; [13]
  MIC: > 100 µg/mL
Bacillus subtilis 6633; [14]
  MIC: 1 µg/mL (≈ 1.95 µM)
K. aerogenes A; [15]
  MIC: > 100 µg/mL
[3]; [16]
  MIC: > 100 µg/mL
Strep. Group C 64/848
  MIC: 1 µg/mL (≈ 1.95 µM)
Staph. aureus Oxford
  MIC: 1 µg/mL (≈ 1.95 µM)
Strep Group B 2788
  MIC: 2.5 µg/mL (≈ 4.89 µM)
Strep. pyogenes R80/421; [17]
  MIC: 1 µg/mL (≈ 1.95 µM)
[4]; [18]
  MIC: 5 µg/mL (≈ 9.77 µM)
Staph. aureus Russell
  MIC: 2.5 µg/mL (≈ 4.89 µM)
Strep. faecalis I
  MIC: 100 µg/mL (≈ 195 µM)
[5]
  MIC: 0.05 µg/mL (≈ 0.0977 µM)
M. hyorhinis ATCC 25021; M. hyorhinis ATCC 25021, Friis broth, 0.9% agarose, 6 days 37° C., read-out: M.I.C.
  MIC: 0.25 µg/mL (≈ 0.489 µM)
[6]; M. hyosynoviae ATCC 25591, Friis broth, 0.9% agarose, 6 days 37° C., read-out: M.I.C.
  MIC: 0.25 µg/mL (≈ 0.489 µM)
M. suipneumoniae NB12; 144 h, M. suipneumoniae NB12, Friis broth, 0.9% agarose, 6 days 37° C., read-out: M.I.C.
  MIC: 0.25 µg/mL (≈ 0.489 µM)
M. suipneumoniae LABER; [19]
  MIC: 0.25 µg/mL (≈ 0.489 µM)
[7]
  fraction unbound: < 0.039
M. suipneumoniae UCD 1
  MIC: 0.5 µg/mL (≈ 0.977 µM)
M. suipneumoniae HK (2)
  MIC: 0.5 µg/mL (≈ 0.977 µM)
[8]; [20]
  MIC: 0.25 µg/mL (≈ 0.489 µM)
M. bovis NCTC 10131
  MIC: 0.025 µg/mL (≈ 0.0489 µM)

## CON=C(CCCOC(=O)/C=C(\C)C[C@@H]1OC[C@H](C[C@@H]2O[C@H]2[C@@H](C)[C@H](C)O)[C@@H](O)[C@H]1O)c1ccccc1 [Example 5, 4-Methoxyimino-4-phenylbutyl monate A]
Staph. aureus W2827; [9]
  MIC: 2.5 µg/mL (≈ 4.81 µM)
E. Coli NCT 10418; [10]
  MIC: > 100 µg/mL
Strep. pneumoniae CN33
  MIC: 2.5 µg/mL (≈ 4.81 µM)
E. coli ESS; 18 h
  MIC: 5 µg/mL (≈ 9.62 µM)
Ps. aeruginosa 10662; [11]
  MIC: > 100 µg/mL
[1]
  MIC: 1 µg/mL (≈ 1.92 µM)
[2]; [12]
  MIC: 2.5 µg/mL (≈ 4.81 µM)
P. mirabilis 889; [13]
  MIC: > 100 µg/mL
Bacillus subtilis 6633; [14]
  MIC: 1 µg/mL (≈ 1.92 µM)
K. aerogenes A; [15]
  MIC: > 100 µg/mL
[3]; [16]
  MIC: > 100 µg/mL
Strep. Group C 64/848
  MIC: 2.5 µg/mL (≈ 4.81 µM)
Staph. aureus Oxford
  MIC: 1 µg/mL (≈ 1.92 µM)
Strep Group B 2788
  MIC: 5 µg/mL (≈ 9.62 µM)
Strep. pyogenes R80/421; [17]
  MIC: 2.5 µg/mL (≈ 4.81 µM)
[4]; Pasteurella multocida, 1633, 18 h
  MIC: 50 µg/mL (≈ 96.2 µM)
Staph. aureus Russell
  MIC: 2.5 µg/mL (≈ 4.81 µM)
Strep. faecalis I
  MIC: > 100 µg/mL
[5]; M. bovigenitalium ATCC 14173, Friis broth, 0.9% agarose, 6 days 37° C., read-out: M.I.C.
  MIC: 0.05 µg/mL (≈ 0.0962 µM)
M. hyorhinis ATCC 25021
  MIC: 0.25 µg/mL (≈ 0.481 µM)
[6]
  MIC: 0.25 µg/mL (≈ 0.481 µM)
M. suipneumoniae NB12; NB12, 144 h
  MIC: 0.25 µg/mL (≈ 0.481 µM)
M. suipneumoniae LABER
  MIC: 0.25 µg/mL (≈ 0.481 µM)
[7]
  fraction unbound: < 0.068
M. suipneumoniae UCD 1
  MIC: 0.25 µg/mL (≈ 0.481 µM)
M. suipneumoniae HK (2); M. suipneumoniae HK (2), Friis broth, 0.9% agarose, 6 days 37° C., read-out: M.I.C.
  MIC: 0.5 µg/mL (≈ 0.962 µM)
[8]
  MIC: 0.25 µg/mL (≈ 0.481 µM)
M. bovis NCTC 10131
  MIC: 0.025 µg/mL (≈ 0.0481 µM)

## C/C(=C\C(=O)OCc1ccc(C=NO)o1)C[C@@H]1OC[C@H](C[C@@H]2O[C@H]2[C@@H](C)[C@H](C)O)[C@@H](O)[C@H]1O [Example 7, 5-Hydroxyiminomethylfurfuryl monate A]
Staph. aureus W2827; W2827, 18 h
  MIC: 5 µg/mL (≈ 10.7 µM)
E. Coli NCT 10418; 18 h
  MIC: > 100 µg/mL
Strep. pneumoniae CN33
  MIC: 2.5 µg/mL (≈ 5.35 µM)
E. coli ESS; 18 h
  MIC: 2.5 µg/mL (≈ 5.35 µM)
Ps. aeruginosa 10662; Pseudomonas aeruginosa, 10662, 18 h
  MIC: > 100 µg/mL
[1]
  MIC: 0.25 µg/mL (≈ 0.535 µM)
[2]; Haemophilus influenzae, Q1, 18 h
  MIC: 0.25 µg/mL (≈ 0.535 µM)
P. mirabilis 889; Proteus mirabilis, 889, 18 h
  MIC: > 100 µg/mL
Bacillus subtilis 6633; Bacillus subtilis, 6633, 18 h
  MIC: 1 µg/mL (≈ 2.14 µM)
K. aerogenes A; 18 h
  MIC: > 100 µg/mL
[3]; 18 h
  MIC: > 100 µg/mL
Strep. Group C 64/848
  MIC: 2.5 µg/mL (≈ 5.35 µM)
Staph. aureus Oxford
  MIC: 2.5 µg/mL (≈ 5.35 µM)
Strep Group B 2788
  MIC: 2.5 µg/mL (≈ 5.35 µM)
Strep. pyogenes R80/421; R80/421, 18 h
  MIC: 1 µg/mL (≈ 2.14 µM)
[4]; [18]
  MIC: 2.5 µg/mL (≈ 5.35 µM)
Staph. aureus Russell
  MIC: 2.5 µg/mL (≈ 5.35 µM)
Strep. faecalis I
  MIC: > 100 µg/mL
[5]
  MIC: 0.025 µg/mL (≈ 0.0535 µM)
M. hyorhinis ATCC 25021
  MIC: 0.5 µg/mL (≈ 1.07 µM)
[6]
  MIC: 0.25 µg/mL (≈ 0.535 µM)
M. suipneumoniae NB12; NB12, 144 h
  MIC: 1 µg/mL (≈ 2.14 µM)
M. suipneumoniae LABER; [19]
  MIC: 0.5 µg/mL (≈ 1.07 µM)
M. suipneumoniae UCD 1
  MIC: 1 µg/mL (≈ 2.14 µM)
M. suipneumoniae HK (2)
  MIC: 1 µg/mL (≈ 2.14 µM)
[8]; [20]
  MIC: 0.5 µg/mL (≈ 1.07 µM)
M. bovis NCTC 10131
  MIC: ≤ 0.01 µg/mL
